Numbers after ± are expanded uncertainties.
Test: xn = mol fraction of the nth substance listed
Conditions: 100 kPa, Liquid; for viscosity: Falling or rolling sphere viscometry; for mass density: Vibrating tube method

CCCC[n+]1ccccc1.[Br-] [1-butylpyridinium bromide] + O
Conditions | mass density [kg/m3] | viscosity [mPa·s]
298.15 K, x1 = 0.03 | 1068.5 ± 1 | 1.544 ± 0.093
298.15 K, x1 = 0.06 | 1118.5 ± 1 | 2.378 ± 0.14
298.15 K, x1 = 0.09 | 1154.8 ± 1 | 3.424 ± 0.21
298.15 K, x1 = 0.13 | 1189.9 ± 1.1 | 5.218 ± 0.32
298.15 K, x1 = 0.17 | 1214.8 ± 1.1 | 8.606 ± 0.52
298.15 K, x1 = 0.211 | 1233.8 ± 1.2 | 12.22 ± 0.74
298.15 K, x1 = 0.25 | 1247.8 ± 1.2 | 16.44 ± 1
298.15 K, x1 = 0.291 | 1259.5 ± 1.3 | 24.37 ± 1.5
298.15 K, x1 = 0.332 | 1268.9 ± 1.5 | 30.3 ± 1.9
298.15 K, x1 = 0.377 | 1277.4 ± 1.7 | 42.55 ± 2.6
303.15 K, x1 = 0.03 | 1066.2 ± 1 | 1.36 ± 0.082
303.15 K, x1 = 0.06 | 1115.6 ± 1 | 2.067 ± 0.12
303.15 K, x1 = 0.09 | 1151.6 ± 1 | 2.951 ± 0.18
303.15 K, x1 = 0.13 | 1186.5 ± 1.1 | 4.45 ± 0.27
303.15 K, x1 = 0.17 | 1211.3 ± 1.1 | 7.401 ± 0.45
303.15 K, x1 = 0.211 | 1230.3 ± 1.2 | 10.37 ± 0.63
303.15 K, x1 = 0.25 | 1244.4 ± 1.2 | 13.83 ± 0.84
303.15 K, x1 = 0.291 | 1256.1 ± 1.3 | 18.59 ± 1.1
303.15 K, x1 = 0.332 | 1265.6 ± 1.5 | 24.78 ± 1.5
303.15 K, x1 = 0.377 | 1274 ± 1.7 | 34.24 ± 2.1
308.15 K, x1 = 0.03 | 1063.8 ± 1 | 1.212 ± 0.073
308.15 K, x1 = 0.06 | 1112.6 ± 1 | 1.82 ± 0.11
308.15 K, x1 = 0.09 | 1148.3 ± 1 | 2.575 ± 0.16
308.15 K, x1 = 0.13 | 1183 ± 1.1 | 3.851 ± 0.23
308.15 K, x1 = 0.17 | 1207.8 ± 1.1 | 6.345 ± 0.38
308.15 K, x1 = 0.211 | 1226.8 ± 1.2 | 8.845 ± 0.54
308.15 K, x1 = 0.25 | 1240.9 ± 1.2 | 11.68 ± 0.71
308.15 K, x1 = 0.291 | 1252.7 ± 1.3 | 15.55 ± 0.95
308.15 K, x1 = 0.332 | 1262.2 ± 1.5 | 20.41 ± 1.2
308.15 K, x1 = 0.377 | 1270.7 ± 1.7 | 27.78 ± 1.7
313.15 K, x1 = 0.03 | 1061.2 ± 1 | 1.089 ± 0.066
313.15 K, x1 = 0.06 | 1109.6 ± 1 | 1.617 ± 0.098
313.15 K, x1 = 0.09 | 1145 ± 1 | 2.268 ± 0.14
313.15 K, x1 = 0.13 | 1179.5 ± 1.1 | 3.356 ± 0.2
313.15 K, x1 = 0.17 | 1204.2 ± 1.1 | 5.426 ± 0.33
313.15 K, x1 = 0.211 | 1223.3 ± 1.1 | 7.548 ± 0.46
313.15 K, x1 = 0.25 | 1237.5 ± 1.2 | 10.01 ± 0.61
313.15 K, x1 = 0.291 | 1249.3 ± 1.3 | 13.05 ± 0.8
313.15 K, x1 = 0.332 | 1258.8 ± 1.5 | 16.97 ± 1
313.15 K, x1 = 0.377 | 1267.3 ± 1.7 | 22.77 ± 1.4
318.15 K, x1 = 0.03 | 1058.6 ± 1 | 0.985 ± 0.06
318.15 K, x1 = 0.06 | 1106.4 ± 1 | 1.447 ± 0.088
318.15 K, x1 = 0.09 | 1141.6 ± 1 | 2.014 ± 0.12
318.15 K, x1 = 0.13 | 1176 ± 1.1 | 2.954 ± 0.18
318.15 K, x1 = 0.17 | 1200.7 ± 1.1 | 4.671 ± 0.28
318.15 K, x1 = 0.211 | 1219.8 ± 1.1 | 6.488 ± 0.39
318.15 K, x1 = 0.25 | 1234 ± 1.2 | 8.493 ± 0.52
318.15 K, x1 = 0.291 | 1245.9 ± 1.3 | 11.08 ± 0.68
318.15 K, x1 = 0.332 | 1255.4 ± 1.5 | 14.29 ± 0.87
318.15 K, x1 = 0.377 | 1264 ± 1.7 | 18.95 ± 1.2
323.15 K, x1 = 0.03 | 1055.7 ± 1 | 0.897 ± 0.054
323.15 K, x1 = 0.06 | 1103.2 ± 1 | 1.306 ± 0.079
323.15 K, x1 = 0.09 | 1138.1 ± 1 | 1.805 ± 0.11
323.15 K, x1 = 0.13 | 1172.4 ± 1.1 | 2.617 ± 0.16
323.15 K, x1 = 0.17 | 1197.1 ± 1.1 | 4.051 ± 0.25
323.15 K, x1 = 0.211 | 1216.3 ± 1.1 | 5.616 ± 0.34
323.15 K, x1 = 0.25 | 1230.5 ± 1.2 | 7.331 ± 0.45
323.15 K, x1 = 0.291 | 1242.4 ± 1.3 | 9.521 ± 0.58
323.15 K, x1 = 0.332 | 1252 ± 1.5 | 12.17 ± 0.74
323.15 K, x1 = 0.377 | 1260.6 ± 1.7 | 15.95 ± 0.98
328.15 K, x1 = 0.03 | 1052.8 ± 1 | 0.822 ± 0.05
328.15 K, x1 = 0.06 | 1099.9 ± 1 | 1.185 ± 0.072
328.15 K, x1 = 0.09 | 1134.7 ± 1 | 1.623 ± 0.098
328.15 K, x1 = 0.13 | 1168.8 ± 1.1 | 2.359 ± 0.14
328.15 K, x1 = 0.17 | 1193.5 ± 1.1 | 3.564 ± 0.22
328.15 K, x1 = 0.211 | 1212.7 ± 1.1 | 4.914 ± 0.3
328.15 K, x1 = 0.25 | 1227 ± 1.2 | 6.394 ± 0.39
328.15 K, x1 = 0.291 | 1239 ± 1.3 | 8.281 ± 0.51
328.15 K, x1 = 0.332 | 1248.6 ± 1.5 | 10.52 ± 0.64
328.15 K, x1 = 0.377 | 1257.3 ± 1.7 | 13.65 ± 0.84
333.15 K, x1 = 0.03 | 1049.9 ± 1 | 0.758 ± 0.046
333.15 K, x1 = 0.06 | 1096.5 ± 1 | 1.081 ± 0.065
333.15 K, x1 = 0.09 | 1131.1 ± 1 | 1.474 ± 0.089
333.15 K, x1 = 0.13 | 1165.2 ± 1.1 | 2.113 ± 0.13
333.15 K, x1 = 0.17 | 1189.9 ± 1.1 | 3.178 ± 0.19
333.15 K, x1 = 0.211 | 1209.1 ± 1.1 | 4.327 ± 0.26
333.15 K, x1 = 0.25 | 1223.4 ± 1.2 | 5.626 ± 0.34
333.15 K, x1 = 0.291 | 1235.5 ± 1.3 | 7.256 ± 0.44
333.15 K, x1 = 0.332 | 1245.4 ± 1.5 | 9.187 ± 0.56
333.15 K, x1 = 0.377 | 1253.9 ± 1.7 | 11.84 ± 0.73
338.15 K, x1 = 0.03 | 1046.6 ± 1 | 0.704 ± 0.043
338.15 K, x1 = 0.06 | 1092.8 ± 1 | 1.002 ± 0.061
338.15 K, x1 = 0.09 | 1127.5 ± 1 | 1.353 ± 0.082
338.15 K, x1 = 0.13 | 1161.5 ± 1.1 | 1.912 ± 0.12
338.15 K, x1 = 0.17 | 1186.2 ± 1.1 | 2.852 ± 0.17
338.15 K, x1 = 0.211 | 1205.5 ± 1.1 | 3.835 ± 0.23
338.15 K, x1 = 0.25 | 1219.9 ± 1.2 | 4.96 ± 0.3
338.15 K, x1 = 0.291 | 1232 ± 1.3 | 6.395 ± 0.39
338.15 K, x1 = 0.332 | 1241.8 ± 1.5 | 8.064 ± 0.49
338.15 K, x1 = 0.377 | 1250.6 ± 1.6 | 10.31 ± 0.63
343.15 K, x1 = 0.03 | 1043.2 ± 1 | 0.66 ± 0.04
343.15 K, x1 = 0.06 | 1089.5 ± 1 | 0.92 ± 0.056
343.15 K, x1 = 0.09 | 1123.9 ± 1 | 1.235 ± 0.075
343.15 K, x1 = 0.13 | 1157.8 ± 1.1 | 1.741 ± 0.11
343.15 K, x1 = 0.17 | 1182.6 ± 1.1 | 2.367 ± 0.14
343.15 K, x1 = 0.211 | 1201.9 ± 1.1 | 3.463 ± 0.21
343.15 K, x1 = 0.25 | 1216.3 ± 1.2 | 4.428 ± 0.27
343.15 K, x1 = 0.291 | 1228.5 ± 1.3 | 5.687 ± 0.35
343.15 K, x1 = 0.332 | 1238.3 ± 1.4 | 7.153 ± 0.44
343.15 K, x1 = 0.377 | 1247.2 ± 1.6 | 9.118 ± 0.56
348.15 K, x1 = 0.03 | 1039.8 ± 1 | 0.618 ± 0.037
348.15 K, x1 = 0.06 | 1086 ± 1 | 0.862 ± 0.052
348.15 K, x1 = 0.09 | 1120.1 ± 1 | 1.139 ± 0.069
348.15 K, x1 = 0.13 | 1154.1 ± 1.1 | 1.591 ± 0.096
348.15 K, x1 = 0.17 | 1178.9 ± 1.1 | 2.149 ± 0.13
348.15 K, x1 = 0.211 | 1198.3 ± 1.1 | 3.138 ± 0.19
348.15 K, x1 = 0.25 | 1212.8 ± 1.2 | 3.971 ± 0.24
348.15 K, x1 = 0.291 | 1225 ± 1.3 | 5.06 ± 0.31
348.15 K, x1 = 0.332 | 1234.9 ± 1.4 | 6.384 ± 0.39
348.15 K, x1 = 0.377 | 1243.8 ± 1.6 | 8.095 ± 0.5

Source: the NIST ThermoML archive (doi:10.1016/j.tca.2018.11.018)
